US10702465B2, “Oral care formulation and method for the removal of tartar and plaque from teeth” (priority 2015, dated 2020)
Entries after “also recorded” stand apart in the source; their conditions may differ.

Legend:
[1] = Tartar removal trials by flossing and brushing, intraoral photographs (Example 5); assay type: in vivo, human; settings: with chlorine dioxide
Excerpt: All photographs in this example were taken by a professional oral hygienist using a Schick intraoral digital camera.
In other unsuccessful trials dimethyl isosorbide was mixed with numerous common tartar reducing toothpastes. The following picture is typical the failed result of six months of flossing with Reach® waxed floss and brushing twice per day with these various tartar reducing toothpastes with a Philips Sonicare® toothbrush for two minutes. The DMI concentration in each case was 7.1% (w).
The white spots present in FIGS. 15 and 17 are from enamel erosion from previous years of heavy tartar presence and attack of the enamel by bacteria.
In a separate study, 5% (w) DMI was mixed with 0.0094% (w) chlorine dioxide in of water [94.5% (w)]. After flossing the DMI-chlorine dioxide-water mixture was transferred to the mouth of the subject and the subject brushed the teeth for 2 minutes with Philips Sonicare®. After 6 weeks of flossing and brushing twice per day with the DMI-chlorine dioxide-water mixture, the photograph of FIG. 16 was taken.
After the picture of FIG. 16 was taken the trial formulation was changed from 5% (w) to 15% DMI 0.0085% (w) chlorine dioxide in water [84.9% (w)]. This new formulation was used for 8 weeks with the same flossing and brushing regimen used in the first 6 weeks. […]

[2] = Centrifuge studies of colloidal fragmentation of tartar; assay type: in vivo, human; settings: each agent alone
Excerpt: Together DMI and chlorine dioxide fragment the insoluble glucan and polypeptide matrix which hold tartar together. […] Not to be held to any specific mechanism of action, it would appear that the primary role of chlorine dioxide is to break polypeptide linkages and protein polyol linkages. But this ability alone is insufficient for tartar fragmentation. The insoluble glucan matrix also appears to provide much of the needed glue to keep the tartar intact. Dimethyl isosorbide appears to enter the cracks within the insoluble glucan structure and splay out the glucan structure which in turn promotes the entry of water to re-hydrate the normally insoluble glucan and destabilize and glucan/biofilm matrix and fragment the tartar structure. Evidence for this rehydration and fragmentation mechanism is provided in the following two studies.
In the first study the subject's teeth were flossed with Reach floss, then flossed with a Waterpik water flosser. After the water flossing the water was removed from the mouth. 3 ml of distilled water was added to the mouth and the teeth were brushed with only water for 2 minutes. After the 2 minutes brushing cycle, the water was expelled into a funnel into a centrifuge tube. The subject's teeth were again flossed with a water flosser and then procedure “A” was followed three more times for a total of four 2 minute brushing cycles. […]

[3] = background statement; cited from earlier work
Streptococcus mutans = settings: high concentrations; cited from earlier work
[4] = 24 hour period, 100% and 50% aqueous concentrations; cited from earlier work
[5] = Tolerability of chlorine dioxide concentrations in use

CO[C@H]1CO[C@H]2[C@@H]1OC[C@H]2OC [DMIS, dimethylisosorbide]
removal of preexisting tartar ([1]; DMI levels above 10% (w)): removed fairly rapidly
level of DMI at which no tartar is reported ([1]; light tartar producers): around 5% (w) or 8% (w)
ability to fragment the tartar matrix ([2]; listed as DMI): Neither chlorine dioxide nor DMI by themselves show the ability to fragment the tartar matrix; also recorded: Neither chlorine dioxide nor DMI alone show the ability to fragment this matrix; also recorded: insufficient to allow DMI alone to rehydrate and fragment the tartar matrix
removal of tartar from teeth [3]: not effective at removing tartar from subjects' teeth in vivo
antibacterial properties (Streptococcus mutans): weak antibacterial at high concentrations
dissolution of collected dental tartar [4]: slowly dissolved

[O][Cl+][O-] [chlorine dioxide]
ability to fragment the tartar matrix [2]: Neither chlorine dioxide nor DMI by themselves show the ability to fragment the tartar matrix; also recorded: Neither chlorine dioxide nor DMI alone show the ability to fragment this matrix
removal of tartar from teeth [3]: ineffective in removing tartar
problems in use ([5]; chlorine dioxide at 0.01%): no reported problems
problems in use ([5]; increased concentrations of chlorine dioxide (above 0.01%)): no problems
